From PubChem BioAssay (NCI)
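Following 48 hours of exposure in 96-well plates, responses at five concentrations were used to interpolate endpoints linearly. Abbreviation: GI50, concentration required for 50% inhibition of growth. Definition used: TGI = concentration required for complete inhibition of growth.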

What was measured:
Assay in all cases: NCI-60 cell line screen, 48 h
HCT-15 colon = test system: HCT-15 colon
A498 renal = test system: A498 renal
OVCAR-3 ovarian = test system: OVCAR-3 ovarian
UACC-257 melanoma = test system: UACC-257 melanoma
OVCAR-8 ovarian = test system: OVCAR-8 ovarian
UACC-62 melanoma = test system: UACC-62 melanoma
EKVX NSCLC = test system: EKVX NSCLC
TK-10 renal = test system: TK-10 renal
NCI-H460 lung = test system: NCI-H460 lung

Row | Compound | GI50 (HCT-15 colon) [µM] | TGI (HCT-15 colon) [µM] | GI50 (A498 renal) [µM] | TGI (A498 renal) [µM] | GI50 (OVCAR-3 ovarian) [µM] | TGI (OVCAR-3 ovarian) [µM] | GI50 (UACC-257 melanoma) [µM] | TGI (UACC-257 melanoma) [µM] | GI50 (OVCAR-8 ovarian) [µM] | TGI (OVCAR-8 ovarian) [µM] | GI50 (UACC-62 melanoma) [µM] | TGI (UACC-62 melanoma) [µM] | GI50 (EKVX NSCLC) [µM] | TGI (EKVX NSCLC) [µM] | GI50 (TK-10 renal) [µM] | TGI (TK-10 renal) [µM] | GI50 (NCI-H460 lung) [µM] | TGI (NCI-H460 lung) [µM]
1 | O=C(Nc1ccncc1)C(=O)c1cn(S(=O)(=O)c2cccc(Cl)c2)c2ccccc12 | 3.24 | > 100 | 25.4 | > 100 | 4.12 | 23.4 | 24.7 | > 100 | 7.98 | > 100 | 5.81 | > 100 | 5.16 | > 100 | 23.5 | 75.9 | 20 | > 100
2 | COc1cc(-c2nn(-c3ccc(NC(=O)Nc4cc(C(F)(F)F)cc(C(F)(F)F)c4)cc3)cc2-c2ccncc2)ccc1Cl | 1.58 | 4.01 | 1.81 | 3.79 | 1.46 | 3.88 | 2.3 | 7.73 | 2.48 | 27.8 | 1.55 | 3.4 | 1.43 | 3.48 | 3.13 | 9.3 | 1.75 | 3.88
3 | O=C1c2ccccc2C(=O)N1CCCOCc1c[nH]c(=O)[nH]c1=O |  | > 100 |  | > 100 |  | > 100 |  | > 100 |  | > 100 |  | > 100 |  | > 100 |  | > 100 |  | > 100
4 | O=S1(=O)c2ccccc2N(c2ccccc2)c2nnnn21 |  | 37.8 |  | 55.4 |  | 47.2 |  | > 100 |  | > 100 |  | 37.1 |  | > 100 |  | > 100 |  | > 100
5 | C=C1C(=O)O[C@H](c2ccoc2)C[C@@H]1[C@@]1(C)CCCC2(C)C(=O)OCC21 (stereo partly drawn) |  | > 100 |  | > 100 |  | > 100 |  | > 100 |  | > 100 |  | > 100 |  | > 100 |  | > 100 |  | > 100
